Active and inactive are the calls of the source.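 The calls were made as follows: active = compounds giving half or more protection of infected cells from virus-caused growth loss, again on retest; inactive = the rest.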 Where a SMILES comes first, the peptide text is derived from it. [ ]: non-standard residue; d: D form. The star is where a group is joined. ξ: configuration not given here. ξF = NC(Cc1ccccc1)C(=O)O; Cbz = O=C(OCc1ccccc1)*; Aib = CC(C)(N)C(=O)O
System: CEM cells HIV-1 protection, formazan growth assay
Assay: NCI AIDS Antiviral Assay
Conditions: for IC50: measured here: growth of uninfected CEM cells
Outline: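 Protection of CEM cells against HIV-1 was scored from cell growth (soluble formazan) across five concentrations, with parallel uninfected cells. Lack of protection may reflect toxicity.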

SMILES	EC50 [µM]	IC50 [µM]	outcome
CC(=O)OC1C=CC(SC23CC4CC(CC(C4)C2)C3)N(C(C)=O)C1SC12CC3CC(CC(C3)C1)C2 (stereo not given)	> 200	> 200	
CCCN1C(=O)c2cc(=O)n(Cc3ccccc3)c(O)c2C1C (stereo not given)	> 115	> 115	
COC(=O)N/N=c1\cc(C(=O)Nc2ccc(C)c(C)c2)oc2cc(O)ccc12	> 661	575	
Cn1c(=O)cc(C=Nc2ccc(O)cc2)c2ccccc21	> 200	1.74	
CC(C(=O)N1C(=O)N(C(=O)C(C)C(O)c2ccccc2)C(c2ccccc2)C1c1ccccc1)C(O)c1ccccc1 (stereo not given)	> 200	28.2	
Cc1c(Cl)cccc1NC(=O)CC1C(=O)Nc2ccccc2S1(=O)=O (stereo not given)	> 5.25	> 5.25	
O=C(NNC(=O)c1ccccc1O)c1ccco1	> 200	32.4	
O=C(OCCN1CCCCC1)c1cc2ccccc2n1Cc1ccccc1	> 200	30.2	
CC(C)(C)OC(=O)NCCCCC(N)NC(=O)c1ccccc1 (stereo not given)	> 200	> 200	
CCN1C(=O)/C(=C\c2coc3ccccc3c2=O)SC1=S	> 0.813	> 0.813	
CC(C)(Oc1ccc(C(=O)c2ccc(Cl)cc2)cc1Cl)C(=O)Nc1c(Cl)cccc1Cl	> 7.59	> 7.59	
CC(C)C(=O)Oc1cc2c(=O)oc3c(OC(=O)C(C)C)c(OC(=O)C(C)C)cc4c(=O)oc(c1OC(=O)C(C)C)c2c34	> 50.1	> 50.1	
CN1C(=O)[C@@H]2N(CSC2(C)C)C1=S	> 200	> 200	
CCc1cccc(C(=O)NCCN(C)C)c1[N+](=O)[O-]	> 200	> 200	
Cc1c(CCO)c(=O)n2c([nH]c3ccccc32)c1C#N	> 107	85.1	
CC(C)N(C(=O)C12C3C4C1C1C2C3C41C(=O)O)C(C)C (stereo not given)	> 129	> 129	
CS(=O)(=O)CS(=O)(=O)OCCCl	> 1050	182	
O=C(CNc1ccc2c(=S)c3ccccc3[nH]c2c1)Nc1ccccc1-c1ccccc1NC(=O)CNc1ccc2c(=S)c3ccccc3[nH]c2c1	> 13.8	4.47	
CCCCCCCCCCCCCC(=O)NCO			inactive

SMILES	EC50 [µM]	IC50 [µM]	outcome
OCC(O)COc1ccc(Br)cc1 (stereo not given)	> 1000	646	
Cc1nc2nn(Cc3ccccc3)cc2c(=O)o1	> 1020	57.5	
CCCCc1ccc(C2=C(O)C(=O)C(c3ccc(CCCC)cc3)=C(O)C2=O)cc1	> 43.7	3.31	
OC(CNc1ccccn1)c1ccccc1 (stereo not given)	> 200	> 200	
CSc1ccn(C2CC(F)C(CO)O2)c(=O)n1 (stereo not given)	42.7	> 200	
COC(=O)C1(O)C(c2ccccc2)=NC2(C)CCCC21 (stereo not given)	> 200	> 200	
Cc1cc2nc(=O)cc(CCl)n2c(=O)n1C(=O)C(O)C(O)C(O)CO (stereo not given)			inactive
CC(=O)Nc1cc(C)ccc1Cl	> 1350	> 1350	
COC(=O)C1(C(=O)OC)CC2=C(S(=O)(=O)c3ccccc3)C[C@@H](C#N)[C@H]2C1	> 200	110	
Cn1c(=O)c2c(ncn2Cc2ccc(O)c([N+](=O)[O-])c2)n(C)c1=O	> 200	> 100	
Cc1nc2ccc(Cl)cc2c2c1CCS2	> 200	117	
COC(=O)CC1NC(=O)[C@@H]1C(C)O (stereo not given in full)	> 251	> 251	
Cc1cc(-c2ccc(C(=O)O)[nH]2)on1	> 200	69.2	
CSC1=C(C(=O)Nc2ccccc2)C(N)=NC1=O	> 200	141	
COC1=CC(=O)c2cc(C)cc(-c3cc4ccc(=O)oc4cc3OC)c2C1=O			inactive
CC(/C=C/c1ccccc1)=N/NS(=O)(=O)c1ccc([N+](=O)[O-])cc1	> 15.1	> 15.1	
COC(=O)C(C)(C)NC(=O)C(Cc1ccccc1)NC(=O)C(C)(C)NC(=O)OCc1ccccc1 (stereo not given) (Cbz-[Aib]-[ξF]-[Aib]-OMe)	195	741	
CNC(=S)SSSSC(=S)NC			inactive

Reference: PubChem BioAssay AID179 (DTP/NCI, 2004)
